Where two headings read alike, the source gives them in different places.
System: colon human tumor (HT-29) cells
Experiment: Cell growth inhibitory activity, standard MTT assay
Type: cell-based
Settings: MTT assay after 72 hr exposure, 0.1% DMSO, read-out: IC50 range
Protocol: Cell growth inhibitory activity of compounds of this invention was determined using a standard MTT assay. Adherent cells of colon human tumor (HT-29) sourced from ATCC (cells number: HTB-38) were treated with DMSO solutions of tested compounds with the ultimate concentration of DMSO in the test solution being 0.1%. Following the 72 hour long treatment MTT was added, and after a brief incubation the resulting formazan was dissolved in addional DMSO and the solutions were scanned using 570 nm wavelength.

IC50	IC50 (Homo sapiens)	SMILES
< 100 nM		CCCC(=O)N1CCCc2cc(S(=O)(=O)N3C[C@H](c4ccccc4)N=C3N)ccc21 [Example 56]
	< 100 nM	CC(C)NC(=O)N1CCc2cc(S(=O)(=O)N3C[C@H](c4ccccc4)N=C3N)ccc21 [Example 98]
100 to 500 nM		CC(=O)N1CCc2cc(S(=O)(=O)N3C[C@H](c4ccccc4)N=C3N)ccc21 [Example 39]
< 100 nM		CCCNC(=O)N1CCc2cc(S(=O)(=O)N3C[C@H](c4ccccc4)N=C3N)ccc21 [Example 82]
< 100 nM		NC1=N[C@@H](c2ccccc2)CN1S(=O)(=O)c1ccc2c(c1)CCN2C(=O)Cc1cccs1 [Example 43]
< 100 nM		NC1=N[C@@H](c2ccccc2)CN1S(=O)(=O)c1ccc2c(c1)CCN2C(=O)c1ccco1 [Example 35]
< 100 nM		NC1=N[C@@H](c2ccccc2)CN1S(=O)(=O)c1ccc2c(c1)CCN2C(=O)NCC1CC1 [Example 100]
< 100 nM		COC(=O)N1CCc2cc(S(=O)(=O)N3C[C@H](c4ccccc4)N=C3N)ccc21 [Example 49]
< 100 nM		CCC(=O)N1CCc2cc(S(=O)(=O)N3C[C@H](c4ccccc4)N=C3N)ccc21 [Example 40]
< 100 nM		NC1=N[C@@H](c2ccccc2)CN1S(=O)(=O)c1ccc2c(c1)CCN2C(=O)Cc1ccccc1 [Example 48]
< 100 nM		CCOc1ccc(C(=O)N2CCc3cc(S(=O)(=O)N4C[C@H](c5ccccc5)N=C4N)ccc32)cc1 [Example 47]
> 500 nM		CCCC(=O)N1CCc2cc(S(=O)(=O)N3C[C@@H](c4ccccc4)N=C3N)ccc21 [Example 57]
< 100 nM		CCCCNC(=O)N1CCc2cc(S(=O)(=O)N3C[C@H](c4ccccc4)N=C3N)ccc21 [Example 89]
< 100 nM		NC1=N[C@@H](c2ccccc2)CN1S(=O)(=O)c1ccc2c(c1)CCN2C(=O)c1ccccc1 [Example 44]
< 100 nM		NC1=N[C@@H](c2ccccc2)CN1S(=O)(=O)c1ccc2c(c1)CCN2C(=O)c1cccs1 [Example 38]
< 100 nM		CC(=O)N1CCC(C(=O)N2CCc3cc(S(=O)(=O)N4C[C@H](c5ccccc5)N=C4N)ccc32)CC1 [Example 50]
< 100 nM		CC(C)(C)CNC(=O)N1CCc2cc(S(=O)(=O)N3C[C@H](c4ccccc4)N=C3N)ccc21 [Example 102]
< 100 nM		NC1=N[C@@H](c2ccccc2)CN1S(=O)(=O)c1ccc2c(c1)CCN2C(=O)C1CCCCC1 [Example 51]
< 100 nM		CC(C)C(=O)N1CCc2cc(S(=O)(=O)N3C[C@H](c4ccccc4)N=C3N)ccc21 [Example 42]
< 100 nM		CC(C)NC(=S)N1CCc2cc(S(=O)(=O)N3C[C@H](c4ccccc4)N=C3N)ccc21 [Example 55]
< 100 nM		CCCC(=O)N1CCc2cc(S(=O)(=O)N3C[C@H](c4ccccc4)N=C3N)ccc21 [Example 41]

Continued, molecule first:

SMILES	IC50	IC50 (Homo sapiens)
NC1=N[C@@H](c2ccccc2)CN1S(=O)(=O)c1ccc2c(c1)CCN2C(=O)c1cccc2ccccc12 [Example 52]	< 100 nM	
CCCCNC(=O)N1CCc2cc(S(=O)(=O)N3C[C@H](c4ccccc4C)N=C3N)ccc21 [Example 95]	< 100 nM	
CCCCNC(=O)N1CCc2cc(S(=O)(=O)N3C[C@H](c4ccc(Cl)cc4)N=C3N)ccc21 [Example 97]	100 to 500 nM	
NC1=N[C@@H](c2ccccc2)CN1S(=O)(=O)c1ccc2c(c1)CCN2C(=O)c1cccnc1 [Example 53]	< 100 nM	
CC1Cc2cc(S(=O)(=O)N3CC(c4ccccc4)N=C3N)ccc2N1C(=O)c1ccc(N)cc1 (mixture of isomers) [Example 54]	< 100 nM	
CCCNC(=O)N1CCc2cc(S(=O)(=O)N3C[C@H](c4ccc(F)cc4)N=C3N)ccc21 [Example 83]	< 100 nM	
Cn1cccc1C(=O)N1CCc2cc(S(=O)(=O)N3C[C@H](c4ccccc4Cl)N=C3N)ccc21 [Example 64]	< 100 nM	
COCCNC(=O)N1CCc2cc(S(=O)(=O)N3CCN=C3N)ccc21 [Example 76]	100 to 500 nM	
CCCNC(=O)N1CCc2cc(S(=O)(=O)N3C[C@H](c4ccccc4C)N=C3N)ccc21 [Example 87]	< 100 nM	
CCCCNC(=O)N1CCc2cc(S(=O)(=O)N3C[C@H](c4cccc(Cl)c4)N=C3N)ccc21 [Example 93]	< 100 nM	
Cc1cccc([C@H]2CN(S(=O)(=O)c3ccc4c(c3)CCN4C(=O)c3cccn3C)C(N)=N2)c1 [Example 65]	100 to 500 nM	
CN(C)c1ccc(C(=O)N2CCc3cc(S(=O)(=O)N4C[C@H](c5ccccc5)N=C4N)ccc32)cc1 [Example 46]	< 100 nM	
CCCNC(=O)N1CCc2cc(S(=O)(=O)N3C[C@H](c4ccc(OC)cc4)N=C3N)ccc21 [Example 84]	100 to 500 nM	
NC1=N[C@@H](c2ccccc2)CN1S(=O)(=O)c1ccc2c(c1)CCN2 [Example 70]	< 100 nM	
NC1=N[C@@H](C2CCCCC2)CN1S(=O)(=O)c1ccc2c(c1)CCN2C(=O)c1ccco1 [Example 37]	< 100 nM	
COc1ccc([C@H]2CN(S(=O)(=O)c3ccc4c(c3)CCN4C(=O)c3cccn3C)C(N)=N2)cc1 [Example 62]	> 500 nM	
CC(C)[C@H]1CN(S(=O)(=O)c2ccc3c(c2)CCN3C(=O)c2ccco2)C(N)=N1 [Example 36]	< 100 nM	

Reference: patent US8981114B2, “Derivatives of 1-(substituted sulfonyl)-2-aminoimidazoline as antitumor and antiproliferative agents” (OncoArendi Therapeutics Sp. z.o.o., priority 2013, dated 2015)
